For this assay, the system named is Cuterebra sp. As to the kind of experiment: In vivo larvicidal activity against Cuterebra sp. in artificially infested mice (dermal dip). As to conditions: mice infested with 5 newly-hatched larvae, body dipped in emulsion 48 h later, larvae examined four days after treatment; for Dermal (mice) Dosage % LC50: concentration killing 50% of larvae; for Dermal (mice) Dosage % LC90: concentration killing 90% of larvae. As to the method:
The larvidical activity of the compounds of the invention may be conveniently evaluated by a method accepted by the U.S. Agricultural Research Service, in which mice infected with Cuterebra spp. are treated topically with the compounds under evaluation.
White mice are artificially infested nasally, buccally, or ocularly with 5 newly-hatched larvae of Cuterebra sp. For dermal tests, 48 hours later a plastic collar is placed around the neck of each male mouse, and the portion of the body behind the collar is dipped in 200 ml of an emulsion of a test compound. A standard emulsifiable concentrate consists of 25 parts of test compound, 65 parts of xylene and 10 parts octylphenoxy polyethoxy ethanol of average molecular weight equal to 628 and having from 9 to 10 ethylene oxide units.
The skin of each mouse is examined carefully for encapsulated live larvae four days after treatment. Effectiveness of the treatments is determined by comparing numbers of larvae encapsulated in treated mice with numbers found in untreated control mice. Usually 3 mice/concentration are treated. if mice or the larvae are killed at the initial concentration of 1%, lower concentrations (0.6, 0.3, 0.2, 0.1%, etc.) are tested until there is no systemic activity or the mice survive.
Mortality data are subjected to log-prohibit analysis in order to determine dosages or concentrations that kill 50 or 90% of the larvae.

With `CC(C)C(C(=O)OC(C#N)c1cccc(Oc2ccccc2)c1)c1ccc(OC(F)F)cc1` (racemic) [(±)-α-cyano-m-phenoxybenzyl (+)-α-isopropyl-4-difluoromethox] [(±)-α-Cyano-m-phenoxybenzyl(+)-α-isopropyl 4-difluoromethoxyphenylacetate], the “Dermal (mice) Dosage % LC50” value is given as “.0030%” and the “Dermal (mice) Dosage % LC90” value is on record as “.0056%”.

Regarding `CC(C)C(C(=O)OC(C#N)c1cccc(Oc2ccccc2)c1)c1ccc(OC(F)F)cc1` (stereo not drawn) [α-cyano-m-phenoxybenzyl α-isopropyl-4-difluoromethoxyphenyla] [α-Cyano-m-phenoxybenzyl α-isopropyl-4-difluoromethoxyphenylacetate], the “Dermal (mice) Dosage % LC50” value is reported as “.0067%” and the “Dermal (mice) Dosage % LC90” value is listed as “.015%”.
